Assay [1] relates to arteriosclerotic lesions induced by the diet in the rabbit. In words: Antiarteriosclerotic activity (procedure of C.T. Cahn, diet-induced lesions). The class given is in vivo. The conditions noted are these: compound given together with the diet, end of a 12 week treatment. Here is the method: The antiarteriosclerotic activity was tested according to the procedure described by C.T. Cahn, Circul. Research, 43, 115, 1975. The procedure consists in verifying any protecting actions of a drug on arteriosclerotic lesions induced by the diet in the rabbit.

Assay [2] addresses collagenase from Clostridium Histolyticum. Put plainly: Collagenase inhibiting activity (method of Appel, substrate N-carbobenzoxy-pro-gly-gly-L-pro-L-alanine). It is filed as biochemical. The conditions noted are these: collagenase type II (Sigma), collagen synthetic peptide substrate. Here is the method: The proteolytic activity of collagenase from Clostridium Histolyticum (Sigma, type II) was dosed according to the method by Appel (Method in enzymatic analysis, H.U. Bergmayer Vol. 2, pp. 1058-1063; 1978) using the collagen synthetic peptide N-carbobenzoxy-pro-gly-gly-L-pro-L-alanine as the substrate.

Experimental findings from patent EP0557303B1, “N- (2-THENOYLMERCAPTO-3-METHYL)-BUTANOYL]-HOMOCYSTEINE THIOLACTONE, A PROCESS FOR THE PREPARATION THEREOF AND PHARMACEUTICAL COMPOSITIONS CONTAINING IT” (priority 1990, dated 1992) are described below.

`CC(C)C(SC(=O)c1cccs1)C(=O)NC1CCSC1=O` (stereo not drawn) [MR-2047, N-[(2-thenoylmercapto-3-methyl)-butanoyl]-homocysteine thiolactone]: in assay [1], the cholesterol levels entry is given as “significant reduction”, the “collagen levels in the connective tissue of the aorta intima” value is “significant reduction”, the “elastin levels in the connective tissue of the aorta intima” value was “significant reduction” and the triglyceride levels result is “significant reduction”. Besides, the IC50 in assay [2] (read-out: IC₅₀) is approximately 2000 nM.
Take `CC(SC(=O)c1cccs1)C(=O)NC1CCSC1=O` (stereo not drawn) [MR-889, 2-(2-Thenoylthio)-N-(2',3',4',5'-tetrahydro-2'-keto-thiophen-3'-yl)propionyl amide, reference compound]: the inhibiting activity result in assay [2] is “almost no inhibiting activity”.
